The values that follow are results of earlier work, collected in patent US20140057918A1, “Methods of Use for Monomethyl Fumarate and Prodrugs Thereof” (XenoPort, Inc., priority 2012, published 2014).

Structures can show the parent of a compound that is named as a salt.

For one series, the system named is herpes simplex virus. The conditions noted are these: animals infected with the herpes simplex virus.

In the case of `COC(=O)/C=C/C(=O)OC` [Dimethyl fumarate, Dimethyl (E)-butenedioate], the aqueous solubility entry is listed as “poor”. For the same molecule, the herpes stromal keratitis entry in the series on herpes simplex virus is on record as “improved”.
